Test results from PubChem BioAssay (NCI).
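Protocol summary: plate cells (96-well), add compound at 5 concentrations, incubate 48 h, interpolate endpoints linearly. TGI: concentration producing complete growth inhibition.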

Tests used:
Assay in all cases: inhibition of tumour cell growth, NCI panel, 48 h
SK-OV-3 ovarian = system: SK-OV-3 ovarian
LOX IMVI melanoma = system: LOX IMVI melanoma
HT29 colon = system: HT29 colon
PC-3 prostate = system: PC-3 prostate
SNB-75 CNS = system: SNB-75 CNS
CCRF-CEM leukemia = system: CCRF-CEM leukemia
SF-295 CNS = system: SF-295 CNS
HCC-2998 colon = system: HCC-2998 colon
MALME-3M melanoma = system: MALME-3M melanoma
SR leukemia = system: SR leukemia

Row | SMILES | TGI (SK-OV-3 ovarian) [µM] | TGI (LOX IMVI melanoma) [µM] | TGI (HT29 colon) [µM] | TGI (PC-3 prostate) [µM] | TGI (SNB-75 CNS) [µM] | TGI (CCRF-CEM leukemia) [µM] | TGI (SF-295 CNS) [µM] | TGI (HCC-2998 colon) [µM] | TGI (MALME-3M melanoma) [µM] | TGI (SR leukemia) [µM]
1 | CCN(CC(=O)O)CC(=O)O | > 100 | > 100 | > 100 | > 100 | > 100 | > 100 | > 100 | > 100 | > 100 | 
2 | COc1cc(-c2c3c(cc4c2OCO4)[C@@H](Nc2ccc4c(c2)Cc2cc(N[C@@H]5c6cc7c(cc6C(c6cc(OC)c(O)c(OC)c6)[C@H]6C(=O)OC[C@H]56)OCO7)ccc2-4)[C@H]2COC(=O)[C@@H]2C3)cc(OC)c1O (stereo not given in full) | 41.1 | > 100 | 47.2 | 47 | > 100 | > 100 | 42.3 |  | 60.4 | 56.5
3 | CCOC(=O)/C(=C/c1ccco1)P(=O)(OCC)OCC | > 100 | > 100 | > 100 |  | > 100 | > 100 | > 100 | > 100 | > 100 | > 100
4 | FC(F)=C(c1ccc(-c2ccc(Cl)cc2)cc1)C(F)(F)F | 41.2 |  | 67.4 | 32.5 | 25.6 | 62.1 | 56.7 |  | 31.3 | 52.4
5 | C=C1CC2C(=O)N(c3ccccc3)C(=O)C2CC1n1[nH]c(=O)n(Cc2ccccc2)c1=O (stereo not given) | > 100 | > 100 | > 100 |  | > 100 | > 100 | > 100 | > 100 | > 100 | > 100
6 | O=c1c(Cc2ccccc2)c(-c2ccccc2)[nH]n1C1=NCCN1 | > 100 | 38.1 | 57 | > 100 | > 100 | > 100 | > 100 |  | > 100 | > 100
7 | O=C(c1ccccc1)[C@H]1Nc2cnccc2C2c3ccccc3CC21 (stereo not given in full) | 44.8 | 3.55 | 50.5 |  | 71.9 | 17.8 | 48.3 | > 100 | 27.4 | 61.6
8 | COC1OC2COC(C)(C)OC2C2OC(C)(C)OC12 (stereo not given) | > 100 |  | > 100 | > 100 |  | 48.8 | > 100 | > 100 | > 100 | 
9 | CN1c2ccccc2C(=O)NC12CCN(CC1COc3ccccc3O1)CC2 (stereo not given) | > 100 | > 100 | > 100 |  | > 100 | > 100 | > 100 | > 100 | > 100 | > 100
10 | COC(=O)[C@H]1C=C[C@H](OC2OC(COC(C)=O)C(OC(C)=O)C(OC(C)=O)C2OC(C)=O)n2c(=O)n(-c3ccccc3)c(=O)n21 (stereo not given in full) | 32.6 |  | 8.58 | 22.6 | 24.9 | 16.3 | 26.9 | 4.55 |  | 8.33
11 | OCC1OC(O[C@H]2CN3[C@H](O)[C@@H](O)[C@H](O)[C@H]3C2O)C(O)C(O)C1O (stereo not given in full) | > 100 | > 100 | > 100 | > 100 |  | > 100 | > 100 | > 100 | > 100 | > 100
12 | CCOC(=O)c1[nH]c2nc(SC)nc(NC)c2c1N | > 100 | > 100 | > 100 | > 100 | > 100 | > 100 | > 100 | > 100 | > 100 | 
13 | COc1cc(CCCOC2OC(COC3OCC(O)C(O)C3O)C(O)C(O)C2O)cc2cc(-c3ccc4c(c3)OCO4)oc12 (stereo not given) | > 175 | > 175 | > 175 |  | > 175 | > 69.7 | > 175 | > 98.4 | > 175 | 
14 | c1ccc(-c2ccc(N=NN3CCCC3)cc2)cc1 | > 100 | > 100 |  | > 100 | > 100 | > 100 | > 100 |  |  | > 100
15 | COc1cc2c(cc1O)CC[n+]1cc3c(OC)c(OC)ccc3cc1-2 | > 100 | > 100 | > 100 | > 100 | > 100 | > 100 | > 100 | > 100 | > 100 | 
16 | NC(=S)N=Nc1c(O)cc(Nc2ccc(Cl)cc2Cl)c2ccccc12 | 61.5 | > 100 | > 100 |  | 78.5 |  | 45.9 | > 100 |  | 
17 | NS(=O)(=O)c1nnc(NSc2ccc([N+](=O)[O-])cc2)s1 | > 100 | > 100 |  |  |  |  | > 100 | > 100 | > 100 | > 100
18 | C/C(=N\Nc1nc2ccccc2s1)c1cccnn1 | 52.3 |  | > 100 | > 100 | 30.7 |  | 7.2 | 89.9 |  | 52.5
19 | CC/C=C\C/C=C\C/C=C\CCCCCCCC(=O)OC(COC(=O)CCCCCCCCCCCCCCCCC)COC1OC(CO)C(O)C(O)C1O (stereo not given) | > 25 | > 25 | > 25 | > 25 | > 25 | > 25 | > 25 | > 25 |  | > 25
20 | O=C(NCCCNCCCCNCCCNC(=O)C(F)(F)F)C(F)(F)F | > 100 | > 100 | > 100 | > 100 | > 100 | > 100 | > 100 | > 100 | > 100 | 
21 | O=[N+]([O-])c1ccc2nc3c(nc2c1)-c1c2ccccc2cc2cccc-3c12 | 60.9 | > 23.6 | > 100 | > 66.6 |  | > 100 | 59.5 | > 100 | 76.5 | 
22 | Cc1cc2c(cc1Cl)SC(NNc1cnc3ccccc3n1)=NS2(=O)=O | > 100 | > 100 | > 100 | > 100 | > 100 | > 100 | > 100 | > 100 | > 100 | 
23 | CC1=CCC[C@H]2[C@](C)(CC3=CC(=O)C4SCCSC4C3=O)[C@@H](C)CC[C@]12C (stereo not given in full) |  | 24.3 |  | 49.4 | 80.8 | 48.7 | 32.8 | 55.8 |  | 53.6
24 | CCN(CC)C(=S)SS(=O)(=O)c1ccc(C)cc1 | > 100 | 36.1 | 30.2 |  |  |  | > 100 | > 100 | 41.9 | 
